# Measurements reported in patent publication US9745289B2, “Aldosterone synthase inhibitors” (Boehringer Ingelheim International GmbH, priority 2014, dated 2017).
# Several values for one entry are separate records, joined by “and”; a condition that tells them apart may be missing. Equal entries are not always repeated.
# Target: cortisol synthase (CYP11B1) (Macaca fascicularis, UniProt A0A2K5ULY1)
# Experiment: Inhibition of Cortisol Synthesis
# Format: biochemical, cynomolgus monkey
# Conditions: cynomolgus adrenal gland mitochondria; 150 units of CYP11B1, 11-deoxycortisol as substrate, cortisol measured as product
# How it was run: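 Cynomolgus adrenal mitochondria as enzyme source (1 unit = 1 pmol product/h); 150 units CYP11B1 with 11-deoxycortisol substrate in 100 mM potassium phosphate pH 7.4, 1% DMSO, started with 1 mM NADPH, 90 min at 37 °C. Cortisol quantified by mass spectrometry; no-NADPH blank as 0%, no-compound as 100% activity.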
row,Compound,IC50
1,"CC(C)C(=O)N1CCC(Oc2cncc(C3COc4c(cccc4C(N)=O)O3)c2)CC1 (single isomer, unassigned) [Cpd 48B, 2-[5-(1-isobutyryl-piperidin-4-yloxy)-pyridin-3-yl]-2,3-dihydro-benzo[1,4]dioxine-5-carboxylic acid amide]",0.24 µM
2,"NC(=O)c1cccc2c1OCC(c1cncc(C(O)C(F)(F)F)c1)O2 (single isomer, unassigned) [Cpd 49AA, 2-[5-(2,2,2-Trifluoro-1-hydroxy-ethyl)-pyridin-3-yl]-2,3-dihydro-benzo[1,4]dioxine-5-carboxylic acid amide]",3.2 µM
3,"NC(=O)c1cccc2c1OCC(c1cncc(C(O)C(F)(F)F)c1)O2 (single isomer, unassigned) [Cpd 49AB, 2-[5-(2,2,2-Trifluoro-1-hydroxy-ethyl)-pyridin-3-yl]-2,3-dihydro-benzo[1,4]dioxine-5-carboxylic acid amide]",1.1 µM
4,"NC(=O)c1cccc2c1OCC(c1cncc(C(O)C(F)(F)F)c1)O2 (single isomer, unassigned) [Cpd 49BA, 2-[5-(2,2,2-Trifluoro-1-hydroxy-ethyl)-pyridin-3-yl]-2,3-dihydro-benzo[1,4]dioxine-5-carboxylic acid amide]",2.5 µM and 1.1 µM
5,"N#Cc1cccc2c1OCC(c1cncc(C3(O)CCOCC3)c1)O2 (single isomer, unassigned) [Cpd 50B, 2-[5-(4-Hydroxy-tetrahydro-pyran-4-yl)-pyridin-3-yl]-2,3-dihydro-benzo[1,4]dioxine-5-carbonitrile]",3.3 µM
6,"NC(=O)c1cccc2c1OCC(c1cncc(F)c1)O2 (single isomer, unassigned) [Cpd 51A, 2-(5-Fluoro-pyridin-3-yl)-2,3-dihydro-benzo[1,4]dioxine-5-carboxylic acid amide]",1.2 µM
7,"NC(=O)c1cccc2c1OCC(c1cncc(F)c1)O2 (single isomer, unassigned) [Cpd 51B, 2-(5-Fluoro-pyridin-3-yl)-2,3-dihydro-benzo[1,4]dioxine-5-carboxylic acid amide]",20 µM
8,"NC(=O)c1cccc2c1OCC(c1cncc3c1CCC3O)O2 (single isomer, unassigned) [Cpd 52AA, 2-(7-Hydroxy-6,7-dihydro-5H-[2]pyrindin-4-yl)-2,3-dihydro-benzo[1,4]dioxine-5-carboxylic acid amide]",4.1 µM
9,"NC(=O)c1cccc2c1OCC(c1cncc3c1CCC3O)O2 (single isomer, unassigned) [Cpd 52AB, 2-(7-Hydroxy-6,7-dihydro-5H-[2]pyrindin-4-yl)-2,3-dihydro-benzo[1,4]dioxine-5-carboxylic acid amide]",0.82 µM
10,"NC(=O)c1cccc2c1OCC(c1cncc3c1CCC3O)O2 (single isomer, unassigned) [Cpd 52BA, 2-(7-Hydroxy-6,7-dihydro-5H-[2]pyrindin-4-yl)-2,3-dihydro-benzo[1,4]dioxine-5-carboxylic acid amide]",16 µM
11,"NC(=O)c1cccc2c1OCC(c1cncc3c1CCC3O)O2 (single isomer, unassigned) [Cpd 52BB, 2-(7-Hydroxy-6,7-dihydro-5H-[2]pyrindin-4-yl)-2,3-dihydro-benzo[1,4]dioxine-5-carboxylic acid amide]",13 µM
12,"CCS(=O)(=O)NCc1cncc(C2COc3c(C#N)cccc3O2)c1 (single isomer, unassigned) [Cpd 54A, Ethanesulfonic acid [5-(5-cyano-2,3-dihydro-benzo[1,4]dioxin-2-yl)-pyridin-3-ylmethyl]-amide]",23 µM
13,"CCS(=O)(=O)NCc1cncc(C2COc3c(C#N)cccc3O2)c1 (single isomer, unassigned) [Cpd 54B, Ethanesulfonic acid [5-(5-cyano-2,3-dihydro-benzo[1,4]dioxin-2-yl)-pyridin-3-ylmethyl]-amide]",14 µM
14,"N#Cc1cccc2c1OCC(c1cncc(CC(=O)N3CC[C@@H](O)C3)c1)O2 (single isomer, unassigned) [Cpd 55A]",11 µM
15,"N#Cc1cccc2c1OCC(c1cncc(CC(=O)N3CC[C@@H](O)C3)c1)O2 (single isomer, unassigned) [Cpd 55B]",> 30 µM
16,"C[C@H](O)c1c(F)cncc1C1COc2c(cccc2C(N)=O)O1 (single isomer, unassigned) [Cpd 56A]",14 µM
17,"C[C@H](O)c1c(F)cncc1C1COc2c(cccc2C(N)=O)O1 (single isomer, unassigned) [Cpd 56B]",14 µM
18,"C[C@@H](O)c1c(F)cncc1C1COc2c(cccc2C(N)=O)O1 (single isomer, unassigned) [Cpd 57A]",16 µM
19,"C[C@@H](O)c1c(F)cncc1C1COc2c(cccc2C(N)=O)O1 (single isomer, unassigned) [Cpd 57B]",15 µM
20,"CC(C)(O)c1c(F)cncc1C1COc2c(cccc2C(N)=O)O1 (single isomer, unassigned) [Cpd 58A, 2-[5-Fluoro-4-(1-hydroxy-1-methyl-ethyl)-pyridin-3-yl]-2,3-dihydro-benzo[1,4]dioxine-5-carboxylic acid amide]",23 µM
21,"CC(C)(O)c1c(F)cncc1C1COc2c(cccc2C(N)=O)O1 (single isomer, unassigned) [Cpd 58B, 2-[5-Fluoro-4-(1-hydroxy-1-methyl-ethyl)-pyridin-3-yl]-2,3-dihydro-benzo[1,4]dioxine-5-carboxylic acid amide]",3 µM
22,"N#Cc1cccc2c1OCC(c1cncc(CNC(=O)C(F)(F)F)c1)O2 (stereo not shown) [Cpd 53, N-[5-(5-Cyano-2,3-dihydro-benzo[1,4]dioxin-2-yl)-pyridin-3-ylmethyl]-2,2,2-trifluoro-acetamide]",24 µM

# More lines, now with the values ahead:
row,IC50,Compound
1,1.1 µM,"Cc1cncc(C2COc3c(cccc3C(N)=O)O2)c1 (single isomer, unassigned) [Cpd 59A, 2-(5-Methyl-pyridin-3-yl)-2,3-dihydro-benzo[1,4]dioxine-5-carboxylic acid amide]"
2,0.89 µM,"Cc1cncc(C2COc3c(cccc3C(N)=O)O2)c1 (single isomer, unassigned) [Cpd 59B, 2-(5-Methyl-pyridin-3-yl)-2,3-dihydro-benzo[1,4]dioxine-5-carboxylic acid amide]"
3,> 30 µM,"CCS(=O)(=O)NC(c1cncc(C2COc3c(cccc3C(N)=O)O2)c1)C1CC1 (single isomer, unassigned) [Cpd 60AA]"
4,> 30 µM,"CCS(=O)(=O)NC(c1cncc(C2COc3c(cccc3C(N)=O)O2)c1)C1CC1 (single isomer, unassigned) [Cpd 60AB]"
5,> 30 µM,"CCS(=O)(=O)NC(c1cncc(C2COc3c(cccc3C(N)=O)O2)c1)C1CC1 (single isomer, unassigned) [Cpd 60BA]"
6,> 30 µM,"CCS(=O)(=O)NC(c1cncc(C2COc3c(cccc3C(N)=O)O2)c1)C1CC1 (single isomer, unassigned) [Cpd 60BB]"
7,25 µM,"Cc1c(C#N)cncc1C1COc2c(cccc2C(N)=O)O1 (single isomer, unassigned) [Cpd 61A, 2-(5-cyano-4-methyl-pyridin-3-yl)-2,3-dihydro-benzo[1,4]dioxine-5-carboxylic acid amide]"
8,22 µM,"Cc1c(C#N)cncc1C1COc2c(cccc2C(N)=O)O1 (single isomer, unassigned) [Cpd 61B, 2-(5-cyano-4-methyl-pyridin-3-yl)-2,3-dihydro-benzo[1,4]dioxine-5-carboxylic acid amide]"
9,> 30 µM,"CS(=N)(=O)Cc1cncc(C2COc3c(C#N)cccc3O2)c1 (single isomer, unassigned) [Cpd 62AA, 2-(5-{[imino(methyl)oxo-λ^6-sulfanyl]methyl}pyridin-3-yl)-2,3-dihydro-1,4-benzodioxine-5-carbonitrile]"
10,> 30 µM,"CS(=N)(=O)Cc1cncc(C2COc3c(C#N)cccc3O2)c1 (single isomer, unassigned) [Cpd 62AB, 2-(5-{[imino(methyl)oxo-λ^6-sulfanyl]methyl}pyridin-3-yl)-2,3-dihydro-1,4-benzodioxine-5-carbonitrile]"
11,14 µM,"CS(=N)(=O)Cc1cncc(C2COc3c(C#N)cccc3O2)c1 (single isomer, unassigned) [Cpd 62BA, 2-(5-{[imino(methyl)oxo-λ^6-sulfanyl]methyl}pyridin-3-yl)-2,3-dihydro-1,4-benzodioxine-5-carbonitrile]"
12,18 µM,"CS(=N)(=O)Cc1cncc(C2COc3c(C#N)cccc3O2)c1 (single isomer, unassigned) [Cpd 62BB, 2-(5-{[imino(methyl)oxo-λ^6-sulfanyl]methyl}pyridin-3-yl)-2,3-dihydro-1,4-benzodioxine-5-carbonitrile]"
